Source: patent US20240226115A1, “AXL INHIBITOR COMPOUNDS” (ARCUS BIOSCIENCES, INC., priority 2021, published 2024)

Assays:
[1] = biological target: T1, recombinant human MER (Homo sapiens, UniProt Q12866); assay: HTRF KinEASE-TK biochemical potency, MER; conditions: 1 nM MER, 700 μM ATP
T1 construct: purchased Invitrogen
T1 sequence (Q12866 21-999): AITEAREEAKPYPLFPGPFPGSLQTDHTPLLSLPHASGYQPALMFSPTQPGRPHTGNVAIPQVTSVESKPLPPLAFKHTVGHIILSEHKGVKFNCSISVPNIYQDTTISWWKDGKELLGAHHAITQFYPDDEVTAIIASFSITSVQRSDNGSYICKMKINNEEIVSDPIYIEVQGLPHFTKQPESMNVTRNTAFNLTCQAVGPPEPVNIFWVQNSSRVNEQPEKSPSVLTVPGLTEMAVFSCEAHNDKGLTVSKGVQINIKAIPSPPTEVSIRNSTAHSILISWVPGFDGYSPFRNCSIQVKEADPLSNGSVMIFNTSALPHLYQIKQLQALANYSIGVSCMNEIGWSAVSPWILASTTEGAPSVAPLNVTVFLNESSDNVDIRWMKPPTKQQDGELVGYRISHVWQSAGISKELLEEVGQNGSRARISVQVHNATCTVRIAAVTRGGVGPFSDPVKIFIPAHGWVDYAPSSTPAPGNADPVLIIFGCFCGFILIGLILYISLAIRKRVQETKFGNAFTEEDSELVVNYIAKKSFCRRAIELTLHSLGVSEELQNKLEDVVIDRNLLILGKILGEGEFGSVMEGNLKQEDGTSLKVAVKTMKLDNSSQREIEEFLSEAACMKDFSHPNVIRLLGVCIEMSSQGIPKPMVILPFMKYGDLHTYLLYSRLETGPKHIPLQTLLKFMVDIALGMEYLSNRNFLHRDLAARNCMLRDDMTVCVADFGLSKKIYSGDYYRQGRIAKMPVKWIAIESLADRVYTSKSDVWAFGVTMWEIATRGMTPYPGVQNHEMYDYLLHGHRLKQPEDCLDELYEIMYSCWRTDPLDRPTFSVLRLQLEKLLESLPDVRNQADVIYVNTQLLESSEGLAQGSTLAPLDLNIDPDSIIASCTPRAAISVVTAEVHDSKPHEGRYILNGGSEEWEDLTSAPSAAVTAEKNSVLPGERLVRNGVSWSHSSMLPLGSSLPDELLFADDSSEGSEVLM
Procedure, shortened: (§1)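 Enzyme preincubated with compound 1 h at RT; final 5 nM AXL or 1 nM TYRO3/MER, 800 nM TK substrate-biotin, 700 μM ATP, HEPES pH 7.4, MgCl2, 1% DMSO, 2 h at RT. HTRF 665/620 ratio read after streptavidin-XL665/cryptate antibody detection; percent activity relative to DMSO and pre-stopped controls.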

[2] = biological target: T2, Axl (Homo sapiens, UniProt P30530); assay: HTRF KinEASE-TK biochemical potency, AXL; parameters: purchased Invitrogen; conditions: 5 nM AXL, 700 μM ATP
T2 sequence (P30530 26-894): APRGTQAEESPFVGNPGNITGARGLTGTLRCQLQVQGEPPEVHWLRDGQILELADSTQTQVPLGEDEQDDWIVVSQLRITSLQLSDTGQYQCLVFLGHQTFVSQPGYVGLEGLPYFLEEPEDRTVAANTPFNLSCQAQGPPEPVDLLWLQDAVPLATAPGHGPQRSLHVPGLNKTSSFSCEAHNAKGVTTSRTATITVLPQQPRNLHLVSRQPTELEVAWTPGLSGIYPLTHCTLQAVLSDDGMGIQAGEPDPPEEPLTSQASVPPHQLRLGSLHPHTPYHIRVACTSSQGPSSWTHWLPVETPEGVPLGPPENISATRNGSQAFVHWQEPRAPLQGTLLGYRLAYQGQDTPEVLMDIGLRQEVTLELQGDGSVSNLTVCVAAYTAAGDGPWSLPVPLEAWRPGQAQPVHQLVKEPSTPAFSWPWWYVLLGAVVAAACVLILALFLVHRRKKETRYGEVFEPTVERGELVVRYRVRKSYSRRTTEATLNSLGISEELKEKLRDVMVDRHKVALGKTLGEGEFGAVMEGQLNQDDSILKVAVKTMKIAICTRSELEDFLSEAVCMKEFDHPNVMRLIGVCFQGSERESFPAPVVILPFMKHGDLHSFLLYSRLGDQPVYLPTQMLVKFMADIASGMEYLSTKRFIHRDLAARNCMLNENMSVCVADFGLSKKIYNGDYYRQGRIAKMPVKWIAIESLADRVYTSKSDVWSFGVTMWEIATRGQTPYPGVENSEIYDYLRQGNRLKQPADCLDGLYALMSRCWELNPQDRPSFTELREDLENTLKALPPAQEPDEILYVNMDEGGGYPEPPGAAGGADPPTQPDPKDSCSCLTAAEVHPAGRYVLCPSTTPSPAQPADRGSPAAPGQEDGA
Procedure, shortened: as §1

| IC50 [1] [µM] | IC50 [2] [µM] | SMILES |
| --- | --- | --- |
| 0.1 to 1 | < 0.1 | C[C@@H]1CCCN1C1CCc2ccc(-c3cnc4[nH]nc(-c5ccc6c(c5)C(=O)NC6(C)C)c4c3)cc2CC1 (stereo partly drawn) [Example 38, 3,3-Dimethyl-6-(5-{7-[(2R)-2-methylpyrrolidin-1-yl]-6,7,8,9-tetrahydro-5H-benzo[7]annulen-2-yl}-1H-pyrazolo[3,4-b]pyridin-3-yl)-2,3-dihydro-1H-isoindol-1-one] |
| 0.1 to 1 | < 0.1 | C[C@@H]1CCCN1C1CCc2ccc(-c3cnc4[nH]nc(-c5cc6c(cc5F)C(=O)NCCO6)c4c3)cc2CC1 (stereo partly drawn) [Example 61, 7-Fluoro-8-(5-{7-[(2R)-2-methylpyrrolidin-1-yl]-6,7,8,9-tetrahydro-5H-benzo[7]annulen-2-yl}-1H-pyrazolo[3,4-b]pyridin-3-yl)-2,3,4,5-tetrahydro-1,4-benzoxazepin-5-one] |
| < 0.1 | < 0.1 | O=C1NCCOc2cc(-c3n[nH]c4ncc(-c5ccc6c(c5)CCN(C5CCCC5)CC6)cc34)ccc21 [Example 7, 8-[5-(3-Cyclopentyl-2,3,4,5-tetrahydro-1H-3-benzazepin-7-yl)-1H-pyrazolo[3,4-b]pyridin-3-yl]-2,3,4,5-tetrahydro-1,4-benzoxazepin-5-one] |
| 0.1 to 1 | < 0.1 | O=C1NCCOc2cc(-c3n[nH]c4ncc(-c5ccc6c(c5)CCN(C5CC5)CC6)cc34)ccc21 [Example 20, 8-(5-(3-Cyclopropyl-2,3,4,5-tetrahydro-1H-benzo[d]azepin-7-yl)-1H-pyrazolo[3,4-b]pyridin-3-yl)-3,4-dihydrobenzo[f][1,4]oxazepin-5(2H)-one] |
| < 0.1 | < 0.1 | O=C1NCCOc2cc(-c3n[nH]c4ncc(-c5ccc6c(c5)CCC(N[C@@H]5CCOC5)C6)cc34)ccc21 (stereo partly drawn) [Example 5, 8-[5-(6-{[(3R)—Oxolan-3-yl]amino}-5,6,7,8-tetrahydronaphthalen-2-yl)-1H-pyrazolo[3,4-b]pyridin-3-yl]-2,3,4,5-tetrahydro-1,4-benzoxazepin-5-one] |
| 0.1 to 1 | < 0.1 | CC1(O)CCOc2cc(-c3n[nH]c4ncc(-c5ccc6c(c5)CCN(C5CCCC5)CC6)cc34)ccc21 (stereo not shown) [Example 26, 7-[5-(3-Cyclopentyl-2,3,4,5-tetrahydro-1H-3-benzazepin-7-yl)-1H-pyrazolo[3,4-b]pyridin-3-yl]-4-methyl-3,4-dihydro-2H-1-benzopyran-4-ol] |

The next lines start with the molecule.

| SMILES | IC50 [1] [µM] | IC50 [2] [µM] |
| --- | --- | --- |
| CC1(C)COc2cc(-c3n[nH]c4ncc(-c5ccc6c(c5)CCC(N5CCCC5)CC6)cc34)ccc2C(=O)N1 (stereo not shown) [Example 35, 3,3-Dimethyl-8-{5-[7-(pyrrolidin-1-yl)-6,7,8,9-tetrahydro-5H-benzo[7]annulen-2-yl]-1H-pyrazolo[3,4-b]pyridin-3-yl}-2,3,4,5-tetrahydro-1,4-benzoxazepin-5-one] | < 0.1 | < 0.1 |
| C[C@@H]1CCCN1C1CCc2cc(F)c(-c3cnc4[nH]nc(-c5ccc6c(c5)OCCNC6=O)c4c3)cc2CC1 (stereo partly drawn) [Example 58, 8-(5-{3-Fluoro-7-[(2R)-2-methylpyrrolidin-1-yl]-6,7,8,9-tetrahydro-5H-benzo[7]annulen-2-yl}-1H-pyrazolo[3,4-b]pyridin-3-yl)-2,3,4,5-tetrahydro-1,4-benzoxazepin-5-one] | < 0.1 | < 0.1 |
| COCCN1CCc2cc(-c3cnc4[nH]nc(-c5ccc6c(c5)OCCNC6=O)c4c3)ccc2C1 [Example 13, 8-(5-(2-(2-Methoxyethyl)-1,2,3,4-tetrahydroisoquinolin-6-yl)-1H-pyrazolo[3,4-b]pyridin-3-yl)-3,4-dihydrobenzo[f][1,4]oxazepin-5(2H)-one] | 0.1 to 1 | < 0.1 |
| C[C@@H]1CCCN1C1CCc2ccc(-c3cnc4[nH]nc(-c5cc(F)c6c(c5)OCCNC6=O)c4c3)cc2CC1 (stereo partly drawn) [Example 6, 6-Fluoro-8-(5-{7-[(2R)-2-methylpyrrolidin-1-yl]-6,7,8,9-tetrahydro-5H-benzo[7]annulen-2-yl}-1H-pyrazolo[3,4-b]pyridin-3-yl)-2,3,4,5-tetrahydro-1,4-benzoxazepin-5-one] | < 0.1 | < 0.1 |
| CC1(O)CCOc2cc(-c3n[nH]c4ncc(-c5ccc6c(c5)CC[C@@H](N5CCCC5)CC6)cc34)ccc21 (stereo partly drawn) [Example 31, 4-Methyl-7-{5-[(7S)-7-(pyrrolidin-1-yl)-6,7,8,9-tetrahydro-5H-benzo[7]annulen-2-yl]-1H-pyrazolo[3,4-b]pyridin-3-yl}-3,4-dihydro-2H-1-benzopyran-4-ol] | 0.1 to 1 | < 0.1 |
| O=C1NCCOc2cc(-c3n[nH]c4ncc(-c5ccc6c(c5)CCC(N5CCOCC5)CC6)cc34)ccc21 (stereo not shown) [Example 47, 8-{5-[7-(Morpholin-4-yl)-6,7,8,9-tetrahydro-5H-benzo[7]annulen-2-yl]-1H-pyrazolo[3,4-b]pyridin-3-yl}-2,3,4,5-tetrahydro-1,4-benzoxazepin-5-one] | < 0.1 | < 0.1 |
| O=C1NCCOc2cc(-c3n[nH]c4ncc(-c5ccc6c(c5)CCC(N5CCCC5)CC6)cc34)ccc21 (racemic) [Example 1, 8-{5-[7-(Pyrrolidin-1-yl)-6,7,8,9-tetrahydro-5H-benzo[7]annulen-2-yl]-1H-pyrazolo[3,4-b]pyridin-3-yl}-2,3,4,5-tetrahydro-1,4-benzoxazepin-5-one] | < 0.1 | < 0.1 |
| C[C@@H]1CCCN1C1CCc2cc(-c3cnc4[nH]nc(-c5ccc6c(c5)OCCNC6=O)c4c3)cc(Cl)c2CC1 (stereo partly drawn) [Example 65, 8-(5-{4-Chloro-7-[(2R)-2-methylpyrrolidin-1-yl]-6,7,8,9-tetrahydro-5H-benzo[7]annulen-2-yl}-1H-pyrazolo[3,4-b]pyridin-3-yl)-2,3,4,5-tetrahydro-1,4-benzoxazepin-5-one] | < 0.1 | < 0.1 |
| Cc1cc2c(cc1-c1cnc3[nH]nc(-c4ccc5c(c4)OCCNC5=O)c3c1)CCC(N1CCC[C@H]1C)CC2 (stereo partly drawn) [Example 64, 8-(5-{3-Methyl-7-[(2R)-2-methylpyrrolidin-1-yl]-6,7,8,9-tetrahydro-5H-benzo[7]annulen-2-yl}-1H-pyrazolo[3,4-b]pyridin-3-yl)-2,3,4,5-tetrahydro-1,4-benzoxazepin-5-one] | < 0.1 | < 0.1 |
| C[C@H]1CCCN1C1CCc2ccc(-c3cnc4[nH]nc(-c5ccc6c(c5)OCCNC6=O)c4c3)cc2CC1 (stereo partly drawn) [Example 43, 8-(5-{7-[(2S)-2-Methylpyrrolidin-1-yl]-6,7,8,9-tetrahydro-5H-benzo[7]annulen-2-yl}-1H-pyrazolo[3,4-b]pyridin-3-yl)-2,3,4,5-tetrahydro-1,4-benzoxazepin-5-one] | < 0.1 | < 0.1 |
| O=C1NCCOc2cc(-c3n[nH]c4ncc(-c5ccc6c(c5)CCC(NC5CCCC5)CC6)cc34)ccc21 (stereo not shown) [Example 42, 8-{5-[7-(Cyclopentylamino)-6,7,8,9-tetrahydro-5H-benzo[7]annulen-2-yl]-1H-pyrazolo[3,4-b]pyridin-3-yl}-2,3,4,5-tetrahydro-1,4-benzoxazepin-5-one] | < 0.1 | < 0.1 |
